Experimental data as given in the supplement of paper PMC4862054.
“And” between values parts separate entries of the source, which are not always exact repeats. Identical values can stand only once.

Assays:
Conditions in all cases: incubation time: 72 h
BT-474 [1] = test: normalised response (% of control), CellTiter-Glo; higher = more viable cells (100 = DMSO, 0 = benzethonium chloride kill control)
Outline: (§1)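 For each plate, 0.1 % DMSO was set to 100 and a positive kill control to 0. Breast cancer cell lines (20 µl suspension) were seeded into 384-well plates already holding compound at 5 concentrations in 10-fold steps over a 10,000-fold range chosen per compound, and incubated for 72 h. CellTox Green fluorescence at 485/520 nm was read before CellTiter-Glo luminescence, which followed 10 min at room temperature. Each value is the normalised signal at one concentration.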

BT-549 [2] = test: as above
Outline: as §1

CAL-120 [3] = test: as above
Outline: as §1

CAL-148 [4] = test: as above
Outline: as §1

CAL-51 [5] = test: as above
Outline: as §1

CAL-85-1 [6] = test: as above
Outline: as §1

DU-4475 [7] = test: as above
Outline: as §1

HCC1143 [8] = test: as above
Outline: as §1

HCC1599 [9] = test: as above
Outline: as §1

HCC1937 [10] = test: as above
Outline: as §1

HDQ-P1 [11] = test: as above
Outline: as §1

Hs578T [12] = test: as above
Outline: as §1

MCF-10A = test: as above
Outline: as §1

MDA-MB-231 [13] = test: as above
Outline: as §1

MDA-MB-436 [14] = test: as above
Outline: as §1

MDA-MB-453 [15] = test: as above
Outline: as §1

MDA-MB-468 [16] = test: as above
Outline: as §1

MFM-223 [17] = test: as above
Outline: as §1

SK-BR-3 [18] = test: as above
Outline: as §1

BT-474 [19] = test: normalised viability (% of control), CellTiter-Blue; higher = more viable cells (100 = DMSO, 0 = benzethonium chloride kill control)
Protocol: (§2)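 DSRT, CellTiter-Blue viability, 72 h incubation. Signal is normalised to DMSO and benzethonium chloride controls. Value is the normalised response at dose 1.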

BT-549 [20] = test: as above
Protocol: as §2

CAL-120 [21] = test: as above
Protocol: as §2

CAL-148 [22] = test: as above
Protocol: as §2

CAL-51 [23] = test: as above
Protocol: as §2

CAL-85-1 [24] = test: as above
Protocol: as §2

DU-4475 [25] = test: as above
Protocol: as §2

HCC1143 [26] = test: as above
Protocol: as §2

HCC1599 [27] = test: as above
Protocol: as §2

HCC1937 [28] = test: as above
Protocol: as §2

HDQ-P1 [29] = test: as above
Protocol: as §2

Hs578T [30] = test: as above
Protocol: as §2

MDA-MB-231 [31] = test: as above
Protocol: as §2

MDA-MB-436 [32] = test: as above
Protocol: as §2

MDA-MB-453 [33] = test: as above
Protocol: as §2

MDA-MB-468 [34] = test: as above
Protocol: as §2

MFM-223 [35] = test: as above
Protocol: as §2

SK-BR-3 [36] = test: as above
Protocol: as §2

| Compound | normalised response (BT-474 [1]) [%] | normalised response (BT-549 [2]) [%] | normalised response (CAL-120 [3]) [%] | normalised response (CAL-148 [4]) [%] | normalised response (CAL-51 [5]) [%] | normalised response (CAL-85-1 [6]) [%] | normalised response (DU-4475 [7]) [%] | normalised response (HCC1143 [8]) [%] | normalised response (HCC1599 [9]) [%] | normalised response (HCC1937 [10]) [%] | normalised response (HDQ-P1 [11]) [%] | normalised response (Hs578T [12]) [%] | normalised response (MCF-10A) [%] | normalised response (MDA-MB-231 [13]) [%] | normalised response (MDA-MB-436 [14]) [%] | normalised response (MDA-MB-453 [15]) [%] | normalised response (MDA-MB-468 [16]) [%] | normalised response (MFM-223 [17]) [%] | normalised response (SK-BR-3 [18]) [%] | normalised viability (BT-474 [19]) | normalised viability (BT-549 [20]) | normalised viability (CAL-120 [21]) | normalised viability (CAL-148 [22]) | normalised viability (CAL-51 [23]) | normalised viability (CAL-85-1 [24]) | normalised viability (DU-4475 [25]) | normalised viability (HCC1143 [26]) | normalised viability (HCC1599 [27]) | normalised viability (HCC1937 [28]) | normalised viability (HDQ-P1 [29]) | normalised viability (Hs578T [30]) [%] | normalised viability (MDA-MB-231 [31]) | normalised viability (MDA-MB-436 [32]) | normalised viability (MDA-MB-453 [33]) | normalised viability (MDA-MB-468 [34]) | normalised viability (MFM-223 [35]) | normalised viability (SK-BR-3 [36]) |
| --- | --- | --- | --- | --- | --- | --- | --- | --- | --- | --- | --- | --- | --- | --- | --- | --- | --- | --- | --- | --- | --- | --- | --- | --- | --- | --- | --- | --- | --- | --- | --- | --- | --- | --- | --- | --- | --- |
| Cc1[nH]c2ccccc2c1CCNCc1ccc(/C=C/C(=O)NO)cc1 [Panobinostat] (0.1 nM) | 101 | 99.5 | 107 | 105 | 130 | 102 | 99.7 | 100 | 98.6 | 94.7 | 98.2 | 91.8 | 96.2 | 105 | 98.9 | 103 | 94.4 | 99.5 | 95.9 | 102% | 108% | 102% | 106% | 110% | 104% | 111% | 104% | 116% | 104% | 100% | 100 | 109% | 109% | 108% | 106% | 104% | 97.2% |
| COc1cc2ncnc(Nc3ccc(F)c(Cl)c3)c2cc1OCCCN1CCOCC1 [Gefitinib] (1 nM) | 97.7 | 94.8 | 97.6 | 107 | 93.1 | 101 | 99.3 | 102 | 99.2 | 91.6 | 94.4 | 99 | 98.8 | 97.2 | 85.5 | 109 | 105 | 105 | 108 | – | 120% and 111% | 77.2% and 85.9% | 107% and 106% | 108% and 107% | 85.3% and 81.5% | 104% and 98.6% | 73.7% and 90.5% | 85.7% and 96.3% | 91.6% and 89.4% | 108% and 86.3% | – | 94.2% and 90.6% | 92.2% and 90.9% | 97.3% and 100% | 90% and 110% | 89.3% and 83.4% | 87.4% and 97.4% |
| S=P(N1CC1)(N1CC1)N1CC1 [Thio-TEPA] (10 nM) | – | – | – | – | – | – | – | – | – | – | – | – | – | – | – | – | – | – | – | 100% | 106% | 86.2% | 102% | 94% | 92.8% | 88.7% | 97.9% | 95.7% | 90% | 109% | 106 | 94.8% | 99.2% | 104% | 107% | 101% | 92.1% |
| Nc1cc(C(F)(F)F)c(-c2cc(N3CCOCC3)nc(N3CCOCC3)n2)cn1 [BKM-120] (1 nM) | – | – | – | – | – | – | – | – | – | – | – | – | – | – | – | – | – | – | – | 116% | 97.8% | 85.6% | 105% | 98% | 89.5% | 114% | 88.4% | 82.8% | 95.9% | 99% | 121 | 110% | 104% | 103% | 96.6% | 93% | 99.7% |
| CCc1c2c(nc3ccc(OC(=O)N4CCC(N5CCCCC5)CC4)cc13)-c1cc3c(c(=O)n1C2)COC(=O)[C@]3(O)CC [Irinotecan] (1 nM) | 98.5 | 109 | 94.2 | 98.3 | 81.6 | 116 | 104 | 93.9 | 105 | 97.2 | 97.3 | 95.9 | 96.5 | 90.3 | 97.9 | 114 | 107 | 94 | 110 | 103% and 98% | 95.7% and 90.7% | – | 91.5% and 110% | 106% and 112% | 83% and 98.7% | 98.7% and 106% | 87.2% and 101% | – | – | 89% and 101% | – | 82.3% and 98.2% | 97.6% and 117% | – | 96.8% and 102% | 93.6% and 104% | 84.7% and 99.9% |
